# Data as given in patent publication US20230322756A1, “FUSED IMIDAZOLE DERIVATIVE, PREPARATION METHOD THEREFOR, AND MEDICAL USE THEREOF” (JIANGSU HENGRUI MEDICINE CO., LTD., priority 2020, published 2023).
# Target: GLP-1 receptor (Homo sapiens (Human), UniProt P43220)
# Test: Agonist activity against GLP-1 receptor, CRE-luciferase reporter (ONE-Glo) in CHO-K1/CRE-luc/GLP-1 receptor cells
# Assay type: cell-based
# Conditions: 6 h incubation
# Description: This experiment was intended to test the agonist activity of the compound molecules against the GLP-1 receptor and evaluate the in vitro activity of the molecules according to EC50. The experiment adopted a ONE-Glo™ Luciferase Assay System (Promega, E6110). Under the action of compound molecules, GLP-1R downstream signaling pathways were activated to cause elevated cAMP level. The combination of cAMP and CRE could start the transcription expression of CRE downstream luciferase genes, the luciferase could emit fluorescence when reacting with substrates thereof, and the activity of the compound for agonizing GLP-1 receptors was reflected by measuring fluorescence signals through a ONE-Glo™ reagent.
# Stably-expressed CHO-K1/CRE-luc/GLP-1 receptor cell strains (self-construction of GLP-1 receptor plasmid; CRE-luc plasmid Promega E8471) were constructed. CHO-K1/CRE-luc/GLP-1 receptor cells were digested, and resuspended after centrifugation. […] The plate was incubated in an incubator for 16 h (37° C., 5% CO2).
# The compound was dissolved in DMSO to prepare a stock solution with an initial concentration of 20 mM. The starting concentration of the small molecule compound was 0.2 mM, and the compound underwent 3-fold serial dilution for a total of 10 concentration points, with DMSO at the 11th point. To another 96-well plate was added 95 μL of cell culture medium (DME/F-12+10% FBS), 5 μL of test samples with different concentrations were added to each well, followed by uniform mixing, and then 10 μL of test samples with different concentrations were added to each well, with two duplicate wells set for each sample. The plate was incubated in an incubator for 6 h (37° C., 5% CO2). The 96-well cell culture plate was taken out, and 100 μL of ONE-Glo™ reagent was added to each well, followed by incubation at room temperature for 10 min. The plate was placed in a microplate reader (EnVision 2105, PE) for determination of chemiluminescence.
# Data were processed and analyzed using Microsoft Excel and Graphpad Prism 5.
# Sequence of GLP-1 receptor (P43220 24-463): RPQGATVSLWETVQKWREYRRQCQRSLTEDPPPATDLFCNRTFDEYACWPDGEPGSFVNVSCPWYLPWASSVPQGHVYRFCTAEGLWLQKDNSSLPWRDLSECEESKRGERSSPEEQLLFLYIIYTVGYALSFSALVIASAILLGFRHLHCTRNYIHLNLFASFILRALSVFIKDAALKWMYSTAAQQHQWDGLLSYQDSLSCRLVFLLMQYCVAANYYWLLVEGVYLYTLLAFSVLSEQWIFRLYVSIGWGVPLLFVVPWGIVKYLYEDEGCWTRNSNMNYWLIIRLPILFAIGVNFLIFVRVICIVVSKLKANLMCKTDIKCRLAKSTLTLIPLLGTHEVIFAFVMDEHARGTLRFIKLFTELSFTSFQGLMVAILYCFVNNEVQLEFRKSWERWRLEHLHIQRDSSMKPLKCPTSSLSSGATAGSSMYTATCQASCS
compound,measurement,value
"O=C(O)c1ccc2nc(CN3CCC(c4cccc5c4O[C@@H](c4ccc(Cl)cc4F)CO5)CC3)n(C[C@@H]3CCO3)c2n1 [Example 5, 2-((4-((S)-3-(4-Chloro-2-fluorophenyl)-2,3-dihydrobenzo[b][1,4]dioxan-5-yl)piperidin-1-yl)methyl)-3-((S)-oxetan-2-ylmethyl)-3H-imidazo[4,5-b]pyridine-5-carboxylic acid]",EC50,0.12 nM
same,Emax,107%
